The source of these data is paper PMC7411736, “Effects of Sesamin, the Major Furofuran Lignan of Sesame Oil, on the Amplitude and Gating of Voltage-Gated Na^+ and K^+ Currents” (Molecules, 2020).

SMILES strings stand for the structures. pIC50: −log10 of the molar value. Like-named read-outs stand apart in the source and are kept apart here.

Experiment [1] deals with hyperpolarization-activated cation currents (Ih) in GH3 cells. Description: Whole-cell patch-clamp of hyperpolarization-activated cation current (−40 to −110 mV). In kind it is cell-based, rat. As for the experimental part:
In the following experiments, we further studied whether the presence of SSM could perturb another type of inwardly directed current, i.e., Ih. Cells were exposed to Ca^2+-free Tyrode’s solution containing 1 μM TTX and the pipette was filled with K^+-containing solution. As the hyperpolarizing command pulse from −40 to −110 mV with a duration of 2 sec was delivered, Ih with a slowly activating property was robustly evoked, as observed previously. […] Cilobradine has recently been reported to decrease Ih amplitude, as well as to alter activation kinetics present in different types of excitable cells.
The bath solution (i.e., a HEPES-buffered normal Tyrode’s solution) utilized in the present study was composed of 136 mM NaCl, 5.4 mM KCl, 1.8 mM CaCl2, 0.53 mM MgCl2, 5.5 mM glucose, and 5.5 mM HEPES titrated with NaOH to pH 7.4. To measure macroscopic IK(DR) and Ih, we filled patch pipettes by using a solution containing 130 mM K-aspartate, 20 mM KCl, 1 mM KH2PO4, 1 mM MgCl2, 3 mM Na2ATP, 0.1 mM Na2GTP, 0.1 mM EGTA, and 5 mM HEPES adjusted with KOH to pH 7.2. To record INa and INa(R), we substituted K^+ ions in the pipette solution inside the electrode for equmolar Cs^+ ions and the pH value in the solution was adjusted to 7.2 with CsOH. […]
On the day of each experiment, cells were dispersed with a 1% trypsin/EDTA solution and a few drops of cell suspension were rapidly placed in a custom-built recording chamber mounted on the stage of an inverted DM-IL microscope (Leica; Major Instruments, Kaohsiung, Taiwan). […] We measured ion currents in the whole-cell model of a standard patch-clamp technique with dynamic adaptive suctioning (i.e., decremental change of suction pressure in response to a progressive increase in the electrode resistance), with the aid of an RK-400 (Bio-Logic, Claix, France) or an Axopatch-200B (Molecular Devices, Sunnyvale, CA) patch amplifier. […] During the measurements, the recorded area on the vibration-free table was shielded by using a Faraday cage (Scitech, Seoul, South Korea). […]

Experiment [2] concerns voltage-gated Na+ currents (INa) in pituitary GH3 cells. Description: Whole-cell patch-clamp of voltage-gated Na+ current evoked by depolarization from −80 to −10 mV. The experiment is classed as cell-based, rat. The settings on record: for pIC50: GH3 cells, depolarization −80 to −10 mV; for Effect on SSM-induced inhibition of peak INa: 10 μM added in continued presence of SSM (3 μM). As for the experimental part:
In an initial step of the experiments, we examined the effects of SSM on the amplitude and gating of INa in response to rapid membrane depolarization. Cells were bathed in Ca^2+-free Tyrode’s solution containing 10 mM tetraethylammonium chloride (TEA) and the recording pipette was backfilled with a Cs^+-containing solution. […] For example, when rapid membrane depolarization from −80 to −10 mV with a duration of 40 msec was delivered (indicated in the inset of Figure 1A) to evoke INa, the addition of 3 μM SSM caused a decrease in the peak or sustained amplitude of INa to 139 ± 11 pA (n = 11, P < 0.05) or 12 ± 3 pA (n = 11, P < 0.05), respectively, from the control values of 248 ± 18 or 21 ± 2 pA (n = 11). After the removal of SSM, the peak and sustained amplitude returned to 232 ± 16 or 19 ± 2 pA (n = 7, P < 0.05).
The bath solution (i.e., a HEPES-buffered normal Tyrode’s solution) utilized in the present study was composed of 136 mM NaCl, 5.4 mM KCl, 1.8 mM CaCl2, 0.53 mM MgCl2, 5.5 mM glucose, and 5.5 mM HEPES titrated with NaOH to pH 7.4. To measure macroscopic IK(DR) and Ih, we filled patch pipettes by using a solution containing 130 mM K-aspartate, 20 mM KCl, 1 mM KH2PO4, 1 mM MgCl2, 3 mM Na2ATP, 0.1 mM Na2GTP, 0.1 mM EGTA, and 5 mM HEPES adjusted with KOH to pH 7.2. To record INa and INa(R), we substituted K^+ ions in the pipette solution inside the electrode for equmolar Cs^+ ions and the pH value in the solution was adjusted to 7.2 with CsOH. To measure IK(erg) and IK(M), cells were bathed in a high-K^+ solution containing 145 mM KCl, 0.53 mM MgCl2, and 5 mM HEPES-KOH buffer, pH 7.4. All solutions were prepared using deionized water from a Millipore Milli-Q purification system (ρ = 18 MΩ·cm) (Merck, Ltd., Taipei, Taiwan). The pipette solution and culture medium were filtered on the day of use with a sterile Acrodisc® syringe filter with a 0.2-μm Supor® membrane (Bio-Check; New Taipei City, Taiwan).
The pituitary adenomatous cell line, GH3, was acquired from the Bioresource Collection and Research Center ((BCRC-60015, https://catalog.bcrc.firdi.org.tw/BcrcContent?bid=60015); Hsinchu, Taiwan). Cells were maintained in Ham’s F-12 medium supplemented with 2.5% fetal bovine serum (v/v), 15% horse serum (v/v), and 2 mM L-glutamine in a humidified environment of 5% CO2/95% air. When well differentiated, GH3 cells were transferred to a serum- and Ca^2+-free medium. Electrical recordings were performed 5 or 6 days after cells were cultured with 60–80% confluence.
On the day of each experiment, cells were dispersed with a 1% trypsin/EDTA solution and a few drops of cell suspension were rapidly placed in a custom-built recording chamber mounted on the stage of an inverted DM-IL microscope (Leica; Major Instruments, Kaohsiung, Taiwan). They were immersed at room temperature (20–25 °C) in normal Tyrode’s solution, the composition of which is elaborated above. We measured ion currents in the whole-cell model of a standard patch-clamp technique with dynamic adaptive suctioning (i.e., decremental change of suction pressure in response to a progressive increase in the electrode resistance), with the aid of an RK-400 (Bio-Logic, Claix, France) or an Axopatch-200B (Molecular Devices, Sunnyvale, CA) patch amplifier. The microelectrodes used were prepared from Kimax-51 borosilicate capillaries with a 1.5-mm outer diameter (#34500; Kimble; Dogger, New Taipei City, Taiwan) by using a PP-830 vertical puller (Narishige, Taiwan Instrument, Taipei, Taiwan). The recording electrodes had their tip resistances, which ranged between 3 and 5 MΩ, as they were filled up with the different internal solutions elaborated above. During the measurements, the recorded area on the vibration-free table was shielded by using a Faraday cage (Scitech, Seoul, South Korea). […]

On to `COc1ccc(CCN2CCC[C@H](CN3CCc4cc(OC)c(OC)cc4CC3=O)C2)cc1OC` [cilobradine, reference compound], for which, in experiment [1] (3 or 10 μM added in continued presence of SSM (10 μM)), the “Effect on Ih amplitude” value is “highly effective at inhibiting”.

What is called pIC50 is the negative decadic logarithm of the IC50, by convention in mol/L. As to `c1cc2c(cc1O[C@H]1OC[C@H]3[C@@H]1CO[C@@H]3c1ccc3c(c1)OCO3)OCO2` [SesA, 5-[(1S,3aR,4R,6aR)-4-(1,3-benzodioxol-5-yloxy)tetrahydro-1H,3H-furo[3,4-c]furan-1-yl]-1,3-benzodioxole], the “Effect on peak amplitude of INa” value in experiment [2] (3 μM, −80 to −10 mV (Figure 2)) is “produced inhibitory effects”. Moreover, the pIC50 is 5.01 in experiment [2] (amplitude at beginning of pulse, read-out: IC50 for decrease of peak INa) and 5.60 in experiment [2] (amplitude at end of pulse, read-out: IC50 for decrease of sustained INa). For the same molecule, the “Effect on Ih amplitude” value in experiment [1] (10 μM) is “minimal effect”.

On to `Cc1c(F)c(F)c(COC(=O)[C@@H]2[C@H](/C=C(\Cl)C(F)(F)F)C2(C)C)c(F)c1F` (racemic) [tefluthrin, reference compound], for which the “Effect on SSM-induced inhibition of peak INa” value in experiment [2] is “effective in reversing”.

On to `CCCc1nc2c(C)cc(-c3nc4ccccc4n3C)cc2n1Cc1ccc(-c2ccccc2C(=O)O)cc1` [telmisartan, reference compound], for which the “Effect on SSM-induced inhibition of peak INa” value in experiment [2] is “effective in reversing”.
